Laboratory results published in article PMC9189845, “Structure–Activity Relationships of 8-Hydroxyquinoline-Derived Mannich Bases with Tertiary Amines Targeting Multidrug-Resistant Cancer” (Journal of Medicinal Chemistry, 2022).
Where two headings read alike, the source gives them in different places.

How the values were obtained:
[1] = UV-visible spectrophotometric titrations (pKa); type: physicochemical; conditions: 25 °C; for pKa: water with 0.2% (v/v) DMSO
Procedure: Spectrophotometrical determination of pKa values was performed as previously reported.[20],[50] An Agilent Cary 8454 diode array spectrophotometer was used to record the UV–visible spectra in the interval 200–800 nm. The path length was between 1 and 5 cm. The spectrophotometric titrations were performed in water with 0.2% (v/v) DMSO on samples containing the compounds at 2–50 μM in the pH range from 2 to 11.5 at 25.0 ± 0.1 °C at an ionic strength of 0.10 M (KCl). Proton dissociation constants and the individual spectra of the species in the different protonation states were calculated with the computer program PSEQUAD.[62]

MES-SA cells = test: PrestoBlue viability assay, MES-SA cells
MES-SA/Dx5 cells = test: PrestoBlue viability assay, MES-SA/Dx5 cells (MDR, P-gp positive); conditions: for SR: selectivity ratio MES-SA vs MES-SA/Dx5, without TQ; for SR_TQ: selectivity ratio MES-SA vs MES-SA/Dx5, with TQ
A431 cells = test: PrestoBlue viability assay, A431 cells
A431-B1 cells = test: PrestoBlue viability assay, A431-B1 (A431-ABCB1) cells
[2] = 0.2% DMSO, I = 0.10 M KCl, read-out: pKa (OH), experimentally determined
[3] = piperidinium / pyrrolidinium / morpholinium N, read-out: pKa (other; N+amH alkylamine nitrogen), experimentally determined
[4] = quinolinium nitrogen, I = 0.10 M KCl, read-out: pKa (NquinH+), experimentally determined
[5] = Homo sapiens, MES-SA, 72 h, read-out: IC50 / μM MES-SA, absence of TQ, 72 h incubation
[6] = Homo sapiens, MES-SA, read-out: pIC50 value MES-SA, MES-SA cells, without TQ (converted)
[7] = Homo sapiens, MES-SA/Dx5, 72 h, read-out: IC50 / μM MES-SA/Dx5, absence of TQ, 72 h incubation
[8] = Homo sapiens, MES-SA/Dx5, read-out: pIC50 value MES-SA/Dx5, MES-SA/Dx5 cells, without TQ (converted)
[9] = read-out: pKa (NpiperaziniumH+ closer to quinoline ring), experimentally determined
[10] = Homo sapiens, A-431, 72 h, read-out: IC50 / µM A431, 72 h incubation
[11] = Homo sapiens, A-431, read-out: pIC50 A431, SARM figure (converted)
[12] = Homo sapiens, MES-SA, read-out: IC50 / μM MES-SA (values in parentheses), presence of 1 μM P-gp inhibitor tariquidar (TQ)
[13] = Homo sapiens, MES-SA, read-out: pIC50 value MES-SA+TQ, MES-SA cells, with TQ (converted)
[14] = 72 h, read-out: IC50 / µM A431-B1, 72 h incubation
[15] = read-out: pIC50 A431-B1, SARM figure (converted)
[16] = Homo sapiens, MES-SA/Dx5, read-out: IC50 / μM MES-SA/Dx5 (values in parentheses), presence of 1 μM P-gp inhibitor tariquidar (TQ)
[17] = Homo sapiens, MES-SA/Dx5, read-out: pIC50 value MES-SA/Dx5 + TQ, MES-SA/Dx5 cells, with TQ (converted)
[18] = read-out: IC50 / μM MES-SA, absence of TQ, 72 h incubation
[19] = read-out: IC50 / μM MES-SA/Dx5, absence of TQ, 72 h incubation
[20] = read-out: pKa (NpiperaziniumH+ at methyl / N-ethyl), experimentally determined
[21] = Homo sapiens, MES-SA, read-out: pIC50 MES-SA, absence of TQ (converted), SARM figure
[22] = Homo sapiens, MES-SA, read-out: pIC50 MES-SA_TQ, presence of 1 μM TQ (converted), SARM figure
[23] = Homo sapiens, MES-SA/Dx5, read-out: pIC50 Dx5, absence of TQ (converted), SARM figure
[24] = Homo sapiens, MES-SA/Dx5, read-out: pIC50 Dx5_TQ, presence of 1 μM TQ (converted), SARM figure

Structure (SMILES) | pKa [1, 2] | pKa [1, 3] | pKa [1, 4] | IC50 (MES-SA cells; [5]) | IC50 (MES-SA cells; [6]) | IC50 (MES-SA/Dx5 cells; [7]) | IC50 (MES-SA/Dx5 cells; [8]) | SR (MES-SA/Dx5 cells) | IC50 (A431 cells; [10]) | IC50 (A431 cells; [11]) | IC50 (MES-SA cells; [12]) | IC50 (MES-SA cells; [13]) | IC50 (A431-B1 cells; [14]) | IC50 (A431-B1 cells; [15]) | IC50 (MES-SA/Dx5 cells; [16]) | IC50 (MES-SA/Dx5 cells; [17]) | SR_TQ (MES-SA/Dx5 cells) | further results
Oc1ccc(CN2CCCCC2)c2cccnc12 [Compound 47] | 8.45 ± 0.03 | 10.23 ± 0.03 | 3.83 ± 0.03 | 7.45 ± 0.06 µM | 7.41 µM | 4.36 ± 0.4 µM | 4.37 µM | 1.71 |  |  |  |  |  |  |  |  |  | 
Oc1ccc(CN2CCN(c3ccccc3)CC2)c2cccnc12 [Compound 57] | 8.88 ± 0.03 |  | 3.63 ± 0.03 | 3.67 ± 0.35 µM | 3.63 µM | 4.19 ± 0.15 µM | 4.17 µM | 0.88 |  |  |  |  |  |  |  |  |  | pKa [1, 9]: 6.69 ± 0.03
Oc1c(CN2CCN(c3ccccc3)CC2)cc(Cl)c2cccnc12 [Compound 38] | 6.21 ± 0.03 |  | 1.7 ± 0.1 | 3.42 ± 1.17 µM | 3.24 µM | 0.59 ± 0.26 µM | 0.537 µM | 5.84 | 7.38 ± 1.23 µM | 7.24 µM | 3.57 ± 1.18 µM | 3.39 µM | 6.31 ± 2.64 µM | 5.75 µM | 1.87 ± 0.75 µM | 1.74 µM | 1.91 | pKa [1, 9]: 10.1 ± 0.03
Oc1c(C(c2ccccn2)N2CCOCC2)cc(Cl)c2cccnc12 (stereo not drawn) [Compound 108] | 9.42 ± 0.03 | 5.53 ± 0.03 | 1.89 ± 0.03 | 40 ± 9.54 µM | 38.9 µM | 24.7 ± 4.26 µM | 24.5 µM | 1.62 |  |  |  |  |  |  |  |  |  | pKa ([1]; read-out: pKa (NpyridiniumH+), experimentally determined): < 2
CCOCc1cc(CN2CCCC2)c(O)c2ncccc12 [Compound 18] | 7.89 ± 0.03 | 11.21 ± 0.03 | 2.49 ± 0.03 | 8.61 ± 1.31 µM | 8.51 µM | 0.93 ± 0.18 µM | 0.912 µM | 9.27 | 35.2 ± 11.5 µM | 33.1 µM | 8.73 ± 0.54 µM | 8.71 µM | 5.92 ± 2.14 µM | 5.62 µM | 5.25 ± 0.18 µM | 5.25 µM | 1.66 | 
Oc1c(C(c2ccccc2)N2CCCCC2)cc(Cl)c2cccnc12 (stereo not drawn) [Compound 97] | 6.46 ± 0.03 | 10.75 ± 0.03 | 1.7 ± 0.1 | 14.9 ± 0.18 µM | 14.8 µM | 14 ± 0.15 µM | 13.8 µM | 1.06 |  |  |  |  |  |  |  |  |  | 
CC(C)OCc1cc(CN2CCCCC2)c(O)c2ncccc12 [Compound 24] | 7.66 ± 0.03 | > 11 | 2.43 ± 0.03 | 6.03 ± 0.29 µM | 6.03 µM | 0.48 ± 0.04 µM | 0.479 µM | 12.57 | 7.53 ± 1 µM | 7.41 µM | 5.76 ± 0.15 µM | 5.75 µM | 1.91 ± 0.18 µM | 1.91 µM | 4.37 ± 0.24 µM | 4.37 µM | 1.32 | 
Oc1c(CN2CCCCC2)cc(Br)c2cccnc12 [Compound 20, 5-Bromo-7-(piperidin-1-ylmethyl)quinolin-8-ol] | 7.16 ± 0.03 | > 11 | 1.8 ± 0.1 | 1.79 ± 0.16 µM | 1.78 µM | 0.17 ± 0.02 µM | 0.166 µM | 10.67 | 6.91 ± 1.37 µM | 6.76 µM | 1.71 µM | 1.7 µM | 2.16 ± 0.35 µM | 1.58 µM | 1.32 ± 0.08 µM | 1.32 µM | 1.29 | IC50 (MES-SA cells; [18]): 1.78 ± 0.17 µM; IC50 (MES-SA/Dx5 cells; read-out: IC50 / μM MES-SA/Dx5 (values in parentheses), presence of 1 μM P-gp inhibitor tariquidar (TQ)): 1.33 µM; IC50 (MES-SA/Dx5 cells; [19]): 0.16 ± 0.02 µM
Oc1c(CN2CCCc3ccccc32)ccc2cccnc12 [Compound 79] | 9.98 ± 0.03 | 1.7 ± 0.1 | 4.45 ± 0.03 | 10.1 ± 0.38 µM | 10 µM | 13.5 ± 0.7 µM | 13.5 µM | 0.75 |  |  |  |  |  |  |  |  |  | pKa (other; N+amH alkylamine nitrogen), experimentally determined ([1]; piperidinium / pyrrolidinium / morpholinium N, water): 1.69
CN1CCN(Cc2cc(Cl)c3cccnc3c2O)CC1 [Compound 9] | 9.63 ± 0.03 |  | 3.56 ± 0.03 | 5.86 ± 0.98 µM | 5.37 µM | 1.59 ± 0.27 µM | 1.86 µM | 2.84 | 17 ± 1.04 µM | 14.5 µM | 5.14 µM | 5.13 µM | 3.55 ± 0.5 µM | 6.31 µM | 4.3 µM | 4.27 µM | 1.19 | pKa [1, 20]: 5.61 ± 0.03; IC50 (A431 cells; read-out: IC50 / µM A431, 72 h incubation): 15.9 ± 7.44 µM; IC50 (MES-SA cells; [21]): 5.75 µM; IC50 (MES-SA cells; [22]): 10 µM; IC50 (MES-SA cells; [18]): 5.39 ± 0.47 µM; IC50 (A431-B1 cells; read-out: IC50 / µM A431-B1, 72 h incubation): 6.67 ± 2.4 µM; IC50 (MES-SA/Dx5 cells; [23]): 1.55 µM; IC50 (MES-SA/Dx5 cells; [24]): 6.76 µM; IC50 (MES-SA/Dx5 cells; [19]): 1.9 ± 0.37 µM
CCOCc1cc(CN2CCN(C)CC2)c(O)c2ncccc12 [Compound 36] |  |  |  | 23 ± 1.46 µM | 22.9 µM | 7.43 ± 0.46 µM | 7.41 µM | 3.09 | 66.6 ± 20.8 µM | 63.1 µM | 22.9 ± 1.08 µM | 22.9 µM | 24.1 ± 10.1 µM | 22.4 µM | 17.1 ± 2.19 µM | 17 µM | 1.34 | IC50 (MES-SA cells; [21]): 22.9 µM; IC50 (MES-SA cells; [22]): 22.9 µM
Oc1c(C(c2ccccn2)N2CCCC2)cc(Cl)c2cccnc12 (stereo not drawn) [Compound 90] |  |  |  | 12 ± 1.5 µM | 12 µM | 6.3 ± 0.15 µM | 6.31 µM | 1.91 |  | 49 µM |  | 5.89 µM |  | 13.2 µM |  | 3.31 µM | 1.78 | 
Oc1c(CN2CCN(c3ccc(F)cc3)CC2)cc(Cl)c2cccnc12 [Compound 44] |  |  |  | 1.61 ± 0.3 µM | 1.58 µM | 0.25 ± 0.01 µM | 0.245 µM | 6.56 | 4.04 ± 0.39 µM | 3.98 µM | 1.75 ± 0.16 µM | 1.74 µM | 3.25 ± 0.94 µM | 3.09 µM | 0.65 ± 0.05 µM | 0.646 µM | 2.7 | SR (MES-SA_TQ / Dx5_TQ) (values in parentheses) (MES-SA/Dx5 cells; fraction of IC50 in P-gp negative vs positive cells, presence of 1 μM TQ): 2.70
CCCOCc1cc(CN2CCCCC2)c(O)c2ncccc12 [Compound 23] |  |  |  | 3.72 ± 0.25 µM | 3.72 µM | 0.34 ± 0.02 µM | 0.339 µM | 10.97 | 6.72 ± 0.57 µM | 6.76 µM | 3.55 ± 0.08 µM | 3.55 µM | 1.53 ± 0.55 µM | 1.45 µM | 2.4 ± 0.04 µM | 2.4 µM | 1.48 | IC50 (MES-SA cells; [22]): 3.8 µM; IC50 (MES-SA/Dx5 cells; [24]): 2.75 µM
Oc1c(C(c2ccncc2)N2CCCCC2)ccc2cccnc12 (stereo not drawn) [Compound 96] |  |  |  | 22.7 ± 0.86 µM | 22.9 µM | 14 ± 1.5 µM | 13.8 µM | 1.62 |  | 35.5 µM |  |  |  | 4.57 µM |  |  |  | IC50 (MES-SA cells; [21]): 15.5 µM; IC50 (MES-SA cells; [22]): 13.8 µM; IC50 (MES-SA/Dx5 cells; [23]): 8.32 µM; IC50 (MES-SA/Dx5 cells; [24]): 12.6 µM
CCN1CCN(Cc2ccc(O)c3ncccc23)CC1 [Compound 55] | 9.67 ± 0.03 |  | 4.94 ± 0.03 | 17.7 ± 3.14 µM | 17.4 µM | 21.38 ± 0.1 µM | 21.4 µM | 0.83 |  |  |  |  |  |  |  |  |  | pKa [1, 20]: 5.48 ± 0.03; pKa [1, 9]: 2.6 ± 0.03
COCc1ccc(O)c2ncccc12 [Compound 14] | 9.43 ± 0.03 |  | 4.64 ± 0.03 | 2.51 ± 0.13 µM | 2.51 µM | 1.79 ± 0.09 µM | 1.78 µM | 1.4 |  |  |  |  |  |  |  |  |  | 
